Results from patent US20120083486A1, “KIT, COMPOSITION, PRODUCT OR MEDICAMENT FOR TREATING COGNITIVE IMPAIRMENT” (ZENYAKU KOGYO KABUSHIKIKAISHA, priority 2008, published 2012).

Key:
[1] = system: scopolamine-induced cognitive impairment; test: passive avoidance task, scopolamine-induced cognitive impairment in mice; assay type: in vivo; conditions: alone, compared with 1% CMC and scopolamine group
Protocol: Eight to nine week old male ICR strain mice (Charles River Laboratories Japan, Inc.) were used in the experiment. They were housed in a cage in groups of 3 or 4 mice, in a room maintained at around 22 degree C. under 12 hour light/dark cycles. Food and water were provided ad libitum. All animal care and treatment was conducted in accordance with the Guidelines for the Care and Use of Laboratory Animals, established at the Central Research Laboratory, Zenyaku Kogyo Co., Ltd.
Compound 1 and donepezil were suspended in 1% carboxymethyl cellulose (CMC). […] For the coadministration studies of Compound 1 and donepezil, both drug suspensions were mixed together and this mixed suspension was […]. All drugs were prepared immediately before use and orally administered at a dosage of 10 ml/kg.
The passive avoidance apparatus (Neuroscience Inc.) consisted of an illuminated chamber and a larger dark chamber. Two chambers were separated by a guillotine door. Oral administration of compound 1 at doses of 0.0001 mg/kg or 0.001 mg/kg and/or donepezil at doses of 0.01 and 0.1 mg/kg was given 60 min before the acquisition trial. […] The matched control group only received the vehicle. During the acquisition trial, each mouse was placed in the illuminated chamber. Immediately after the entry into the dark chamber, the door was closed and an inescapable scrambled electric shock (100 V, 0.4 mA, 1.5 sec) was delivered through the floor grid. Twenty-four hours later, each mouse was placed in the illuminated chamber for retention trial. The interval between placement in the illuminated chamber and entry into the dark chamber was measured as step through latency (maximum 300 seconds).
A P level of <0.05 was considered indicative of statistical significance for the tests.

[2] = system: extracellular levels of acetylcholine (ACh) in a rat hippocampus; test: extracellular levels of acetylcholine (ACh) in rat hippocampus (microdialysis, HPLC-ECD); assay type: in vivo; conditions: alone, compared with 1% CMC group
Protocol: Food and water were provided ad libitum. All animal care and treatment was conducted in accordance with the Guidelines for the Care and Use of Laboratory Animals, established at the Central Research Laboratory, Zenyaku Kogyo Co., Ltd.

## O=C1N=C2C=CC=CN2C12Cc1ccccc1C2 [compound 1, spiro[imidazo[1,2-a]pyridin-2(3H)-one-3,2′-indan]]
[1]; compound 1 0.0001 mg/kg oral
  step-through latency in retention trial: did not significantly prolong the step-through latency
[1]; compound 1 0.001 mg/kg oral, P<0.05
  step-through latency in retention trial: prolonged the step-through latency
[2]; compound 1 0.001 mg/kg oral
  extracellular level of ACh in the hippocampus: did not significantly increase

## COc1cc2c(cc1OC)C(=O)C(CC1CCN(Cc3ccccc3)CC1)C2 (stereo not drawn) [donepezil]
[1]; donepezil 0.01 mg/kg oral
  step-through latency in retention trial: did not significantly prolong the step-through latency
[1]; donepezil 0.1 mg/kg oral, P<0.05
  step-through latency in retention trial: prolonged the step-through latency
[2]; donepezil 1 mg/kg oral
  extracellular level of ACh in the hippocampus: did not significantly increase
